# Data published in publication PMC7497625, “Machine-Vision-Enabled Salt Dissolution Analysis” (Analytical Chemistry, 2020).
# Marks after values point to notes of the source that are not given here.
# Assays:
# [1] = Miniaturized shake-flask (SF) experiment in USP buffers with HPLC-UV, pH measurement and XRPD of remaining solids; format: physicochemical
# Protocol: For NAP, both phosphate and borate buffers were used at pH 8.0. […] At 48, 72, and 96 h the rotation was stopped, pHs were measured, and samples were centrifuged at constant temperature and 21 100g for 15 min prior to sampling of the supernatant. The supernatants were appropriately diluted and analyzed with reverse-phase HPLC-UV. After 96 h, the solids were extracted and analyzed using XRPD. […] Drug concentration in the supernatants was determined using an Agilent High Performance Liquid Chromatography (HPLC) 1260 system (Agilent Technologies, Germany) coupled with a Phenomenex Gemini NX-C18, 3 μm, 100 × 4.6 mm column (Phenomenex, Torrace, CA). The temperature of the column was set to 30 °C. The mobile phase was 0.2% H3PO4:acetonitrile (40:60, v:v for DIC and 50:50, v:v for NAP) with a flow rate of 1 mL/min. The injection volume was 20 μL, and detection was performed at 276 nm for DIC and 254 nm for NAP. Standard solutions of DIC and NAP were prepared in 0.2% H3PO4:acetonitrile (50:50, v:v) and analyzed with HPLC-UV to construct the calibration curve. […] To determine the solid-state form of the initial samples, XRPD diffractograms were recorded with an Aeris diffractometer (Malvern Panalytical B.V., Almelo, The Netherlands) using Cu Kα radiation (λ = 1.540598 Å) and a divergence slit of 0.76 mm. […] Measurements were performed in triplicate with independent samples. Additional measurements using XRPD were performed for the remaining solids after the 96 h miniaturized SF experiments.
# [2] = Machine-vision-based single-particle analysis (SPA) solubility measurement, pH-solubility profile; format: physicochemical
# Protocol: The SPA measurements were carried out as already previously described by Svanbäck et al. and Štukelj et al.[17],[19],[20] Briefly, the two main components of the SPA method are the flow-through setup and the analysis software. The flow-through setup enables trapping and machine-vision tracking of drug particles under steady flow–sink–conditions. The average measurement time is 5 min. The captured images are then analyzed using custom-made software, which is capable of semiautomatic particle recognition and tracking of the individual particle morphology throughout the measurement. The decrease in size, under sink conditions, according to Noyes and Whitney, is directly proportional to the equilibrium solubility of the compound. In this way, the solubility data from the images is extracted. Depending on the number of particles, the reported solubility values are an average of up to several hundred individual particles. For in-depth description and visuals, readers are directed to the three original papers cited above.
# [3] = cited from earlier work
# [4] = 0.05 M USP buffer Borate pH 8.0
# [5] = 0.05 M USP buffer Borate pH 9.0
# [6] = 0.05 M USP buffer Phosphate pH 6.0
# [7] = 0.05 M USP buffer Phosphate pH 7.0
# [8] = 0.05 M USP buffer Phtalate pH 3.0
# [9] = 0.05 M USP buffer Phtalate pH 4.0
# [10] = 0.05 M USP buffer Phtalate pH 5.0
# [11] = starting material free acid, after 96 h
SMILES,"solid-state form at end of SF experiment (XRPD) ([1]; starting material anhydrous salt, initial pH 6.0 and 8.0)","solid-state form at end of SF experiment (XRPD) ([1]; starting material salt, initial pH 2.0 and 4.0)","pHmax′ SPA (apparent pHmax) ([2]; intersect of the two regions of the SPA pH-solubility profile, started with anhydrous salt)",pHmax ([2]; linear extrapolation of pH-corrected SPA values of free acid to the SF-determined solubility of the salt (Figure 2b / 5b)),SPA solubility upon disproportionation compared to the free acid ([2]; region below pH 8),pHmax lit. [3],"Measured pH of miniaturized SF experiment [1, 4]","Measured pH of miniaturized SF experiment [1, 5]",Measured pH of miniaturized SF experiment ([1]; 0.05 M USP buffer HCl pH 2.0),"Measured pH of miniaturized SF experiment [1, 6]","Measured pH of miniaturized SF experiment [1, 7]","Measured pH of miniaturized SF experiment [1, 8]","Measured pH of miniaturized SF experiment [1, 9]","Measured pH of miniaturized SF experiment [1, 10]","solid-state form at end of SF experiment (XRPD) [1, 11]",solubility at 5 min ([2]; read-out: S0 SPA (intrinsic solubility)) [µg/mL],"solid-state form at end of SF experiment (XRPD) ([1]; starting material anhydrous salt, pH 8.0, borate and phosphate buffer)","solid-state form at end of SF experiment (XRPD) ([1]; starting material salt, initial pHs 2.0, 4.0 and 6.0)",Measured pH of miniaturized SF experiment ([1]; 0.05 M USP buffer Phosphate pH 8.0)
O=C(O)Cc1ccccc1Nc1c(Cl)cccc1Cl [diclofenac sodium],converted into its hydrate form,converted into a free acid form,7.35,7.98,higher solubility upon disproportionation,"∼8 ^a^, ^e",,,,,,,,,,,,,
"O=C(O)Cc1ccccc1Nc1c(Cl)cccc1Cl [diclofenac, Diclofenac]",,,,,,,7.0,7.8,2.0,6.0,6.9,3.00,4.0,4.9,remained in the same form throughout the experiment,0.6 ± 0.3,,,
COc1ccc2cc([C@H](C)C(=O)O)ccc2c1 [naproxen sodium],,,,,,∼8 ^c,,,,,,,,,,,converted into its hydrate form,converted into a free acid,
"COc1ccc2cc([C@H](C)C(=O)O)ccc2c1 [naproxen, Naproxen]",,,,,,,6.0,6.8,1.9,5.8,6.6,3.0,4.1,5.0,the same form remained throughout the experiment,,,,6.9
